Source: the supplement of paper PMC10307832

How the values were obtained:
Assay in all cases: relative viability (nuclei count vs DMSO), 5 days (fraction); higher = more cells survive
Vorinostat = compound: O=C(CCCCCCC(=O)Nc1ccccc1)NO [Vorinostat]
How it was run: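 Viability here means nuclei in treated wells divided by nuclei in vehicle wells, reported as the median across plates. Only plates with control CV below 25% and at least one doubling passed. Lung cancer cell lines in 1536-well plates were exposed to five √10-spaced library-drug doses for 5 days and counted from 4× Hoechst images in MetaXpress.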

Vorinostat + Bortezomib = compound: O=C(CCCCCCC(=O)Nc1ccccc1)NO [Vorinostat] + CC(C)C[C@H](NC(=O)[C@H](Cc1ccccc1)NC(=O)c1cnccn1)B(O)O [Bortezomib] (partner 0.002 µM)
How it was run: (§1)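 A single step with final 0.05% Triton X-100, 1% formaldehyde and 1 ug/ml Hoechst fixed the cells and stained nuclei 5 days after treatment. Lung cancer cell lines in 1536-well plates had been treated by pin tool the day after seeding with one drug alone or a fixed anchor-drug dose plus five library-drug doses (not always all listed) in √10 steps, and nuclei were counted on 4× images. Relative viability is the ratio of nuclei in treated wells to nuclei in vehicle wells, taken as the median of duplicate plates.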

Vorinostat + Navitoclax = compound: O=C(CCCCCCC(=O)Nc1ccccc1)NO [Vorinostat] + CC1(C)CCC(c2ccc(Cl)cc2)=C(CN2CCN(c3ccc(C(=O)NS(=O)(=O)c4ccc(N[C@H](CCN5CCOCC5)CSc5ccccc5)c(S(=O)(=O)C(F)(F)F)c4)cc3)CC2)C1 [Navitoclax] (partner 0.5 µM)
How it was run: as §1

Vorinostat + Foretinib = compound: O=C(CCCCCCC(=O)Nc1ccccc1)NO [Vorinostat] + COc1cc2c(Oc3ccc(NC(=O)C4(C(=O)Nc5ccc(F)cc5)CC4)cc3F)ccnc2cc1OCCCN1CCOCC1 [Foretinib] (partner 0.25 µM)
How it was run: as §1

Vorinostat + Lapatinib = compound: O=C(CCCCCCC(=O)Nc1ccccc1)NO [Vorinostat] + CS(=O)(=O)CCNCc1ccc(-c2ccc3ncnc(Nc4ccc(OCc5cccc(F)c5)c(Cl)c4)c3c2)o1 [Lapatinib] (partner 2 µM)
How it was run: as §1

Vorinostat + Pictilisib = compound: O=C(CCCCCCC(=O)Nc1ccccc1)NO [Vorinostat] + CS(=O)(=O)N1CCN(Cc2cc3nc(-c4cccc5[nH]ncc45)nc(N4CCOCC4)c3s2)CC1 [Pictilisib] (partner 1 µM)
How it was run: as §1

Vorinostat + Crizotinib = compound: O=C(CCCCCCC(=O)Nc1ccccc1)NO [Vorinostat] + C[C@@H](Oc1cc(-c2cnn(C3CCNCC3)c2)cnc1N)c1c(Cl)ccc(F)c1Cl [Crizotinib] (partner 1 µM)
How it was run: as §1

Vorinostat + Linsitinib = compound: O=C(CCCCCCC(=O)Nc1ccccc1)NO [Vorinostat] + C[C@]1(O)C[C@@H](c2nc(-c3ccc4ccc(-c5ccccc5)nc4c3)c3c(N)nccn32)C1 [Linsitinib] (partner 1 µM)
How it was run: as §1

Vorinostat + Alpelisib = compound: O=C(CCCCCCC(=O)Nc1ccccc1)NO [Vorinostat] + Cc1nc(NC(=O)N2CCC[C@H]2C(N)=O)sc1-c1ccnc(C(C)(C)C(F)(F)F)c1 [Alpelisib] (partner 2 µM)
How it was run: as §1

Vorinostat + Olaparib = compound: O=C(CCCCCCC(=O)Nc1ccccc1)NO [Vorinostat] + O=C(c1cc(Cc2n[nH]c(=O)c3ccccc23)ccc1F)N1CCN(C(=O)C2CC2)CC1 [Olaparib] (partner 8 µM)
How it was run: as §1

Vorinostat + Trametinib = compound: O=C(CCCCCCC(=O)Nc1ccccc1)NO [Vorinostat] + CC(=O)Nc1cccc(-n2c(=O)n(C3CC3)c(=O)c3c(Nc4ccc(I)cc4F)n(C)c(=O)c(C)c32)c1 [Trametinib] (partner 0.02 µM)
How it was run: as §1

Vorinostat + Palbociclib = compound: O=C(CCCCCCC(=O)Nc1ccccc1)NO [Vorinostat] + CC(=O)c1c(C)c2cnc(Nc3ccc(N4CCNCC4)cn3)nc2n(C2CCCC2)c1=O [Palbociclib] (partner 0.5 µM)
How it was run: as §1

Vorinostat + OSI-027 = compound: O=C(CCCCCCC(=O)Nc1ccccc1)NO [Vorinostat] + COc1cccc2cc(-c3nc([C@H]4CC[C@H](C(=O)O)CC4)n4ncnc(N)c34)[nH]c12 [OSI-027] (partner 0.5 µM)
How it was run: as §1

Vorinostat + Tozasertib = compound: O=C(CCCCCCC(=O)Nc1ccccc1)NO [Vorinostat] + Cc1cc(Nc2cc(N3CCN(C)CC3)nc(Sc3ccc(NC(=O)C4CC4)cc3)n2)n[nH]1 [Tozasertib] (partner 0.1 µM)
How it was run: as §1

Vorinostat + AZD7762 = compound: O=C(CCCCCCC(=O)Nc1ccccc1)NO [Vorinostat] + NC(=O)Nc1cc(-c2cccc(F)c2)sc1C(=O)N[C@H]1CCCNC1 [AZD7762] (partner 0.2 µM)
How it was run: as §1

Vorinostat + Pemetrexed = compound: O=C(CCCCCCC(=O)Nc1ccccc1)NO [Vorinostat] + Nc1nc2[nH]cc(CCc3ccc(C(=O)N[C@@H](CCC(=O)O)C(=O)O)cc3)c2c(=O)[nH]1 [Pemetrexed] (partner 0.2 µM)
How it was run: as §1

Vorinostat + Decitabine = compound: O=C(CCCCCCC(=O)Nc1ccccc1)NO [Vorinostat] + Nc1ncn([C@H]2C[C@H](O)[C@@H](CO)O2)c(=O)n1 [Decitabine] (partner 2 µM)
How it was run: as §1

Work on EBC-1 yielded a relative viability (Vorinostat; 0.253 µM) of 0.913, a relative viability (Vorinostat; 0.8 µM) of 0.654 and a relative viability (Vorinostat; 2.53 µM) of 0.222. For the same cell line, the relative viability (Vorinostat; 8 µM) was 0.0742, the relative viability (Vorinostat + Bortezomib; first compound 0.253 µM) was 0.376 and the relative viability (Vorinostat + Bortezomib; first compound 0.8 µM) was 0.325. It also gave a relative viability (Vorinostat + Bortezomib; first compound 2.53 µM) of 0.124, a relative viability (Vorinostat + Bortezomib; first compound 8 µM) of 0.0971 and a relative viability (Vorinostat + Navitoclax; first compound 0.253 µM) of 0.376. It also gave a relative viability (Vorinostat + Navitoclax; first compound 0.8 µM) of 0.215, a relative viability (Vorinostat + Navitoclax; first compound 2.53 µM) of 0.126 and a relative viability (Vorinostat + Navitoclax; first compound 8 µM) of 0.114. For the same cell line, the relative viability (Vorinostat + Foretinib; first compound 0.253 µM) was 0.117, the relative viability (Vorinostat + Foretinib; first compound 0.8 µM) was 0.101 and the relative viability (Vorinostat + Foretinib; first compound 2.53 µM) was 0.0655. The relative viability (Vorinostat + Foretinib; first compound 8 µM) was 0.044, the relative viability (Vorinostat + Lapatinib; first compound 0.253 µM) was 0.243 and the relative viability (Vorinostat + Lapatinib; first compound 0.8 µM) was 0.209. The relative viability (Vorinostat + Lapatinib; first compound 2.53 µM) was 0.164, the relative viability (Vorinostat + Lapatinib; first compound 8 µM) was 0.124 and the relative viability (Vorinostat + Pictilisib; first compound 0.253 µM) was 0.32. It also gave a relative viability (Vorinostat + Pictilisib; first compound 0.8 µM) of 0.203, a relative viability (Vorinostat + Pictilisib; first compound 2.53 µM) of 0.1 and a relative viability (Vorinostat + Pictilisib; first compound 8 µM) of 0.0715. For the same cell line, the relative viability (Vorinostat + Crizotinib; first compound 0.253 µM) was 0.207, the relative viability (Vorinostat + Crizotinib; first compound 0.8 µM) was 0.224 and the relative viability (Vorinostat + Crizotinib; first compound 2.53 µM) was 0.169. The relative viability (Vorinostat + Crizotinib; first compound 8 µM) was 0.118, the relative viability (Vorinostat + Linsitinib; first compound 0.253 µM) was 0.838 and the relative viability (Vorinostat + Linsitinib; first compound 0.8 µM) was 0.458. The relative viability (Vorinostat + Linsitinib; first compound 2.53 µM) was 0.134, the relative viability (Vorinostat + Linsitinib; first compound 8 µM) was 0.0589 and the relative viability (Vorinostat + Alpelisib; first compound 0.253 µM) was 0.675. The relative viability (Vorinostat + Alpelisib; first compound 0.8 µM) was 0.65, the relative viability (Vorinostat + Alpelisib; first compound 2.53 µM) was 0.143 and the relative viability (Vorinostat + Alpelisib; first compound 8 µM) was 0.0927. For the same cell line, the relative viability (Vorinostat + Olaparib; first compound 0.253 µM) was 0.681, the relative viability (Vorinostat + Olaparib; first compound 0.8 µM) was 0.476 and the relative viability (Vorinostat + Olaparib; first compound 2.53 µM) was 0.193. For the same cell line, the relative viability (Vorinostat + Olaparib; first compound 8 µM) was 0.0767.

Calu-6 showed a relative viability (Vorinostat; 0.253 µM) of 1.07, a relative viability (Vorinostat; 0.8 µM) of 0.894 and a relative viability (Vorinostat; 2.53 µM) of 0.361. The relative viability (Vorinostat; 8 µM) was 0.0946, the relative viability (Vorinostat + Bortezomib; first compound 0.253 µM) was 0.917 and the relative viability (Vorinostat + Bortezomib; first compound 0.8 µM) was 0.864. For the same cell line, the relative viability (Vorinostat + Bortezomib; first compound 2.53 µM) was 0.434, the relative viability (Vorinostat + Bortezomib; first compound 8 µM) was 0.127 and the relative viability (Vorinostat + Navitoclax; first compound 0.253 µM) was 0.849. It also gave a relative viability (Vorinostat + Navitoclax; first compound 0.8 µM) of 0.761, a relative viability (Vorinostat + Navitoclax; first compound 2.53 µM) of 0.212 and a relative viability (Vorinostat + Navitoclax; first compound 8 µM) of 0.0656. It also gave a relative viability (Vorinostat + Foretinib; first compound 0.253 µM) of 0.975, a relative viability (Vorinostat + Foretinib; first compound 0.8 µM) of 0.728 and a relative viability (Vorinostat + Foretinib; first compound 2.53 µM) of 0.183. For the same cell line, the relative viability (Vorinostat + Foretinib; first compound 8 µM) was 0.0381, the relative viability (Vorinostat + Lapatinib; first compound 0.253 µM) was 1.12 and the relative viability (Vorinostat + Lapatinib; first compound 0.8 µM) was 0.876. It also gave a relative viability (Vorinostat + Lapatinib; first compound 2.53 µM) of 0.416, a relative viability (Vorinostat + Lapatinib; first compound 8 µM) of 0.107 and a relative viability (Vorinostat + Pictilisib; first compound 0.253 µM) of 1.11. For the same cell line, the relative viability (Vorinostat + Pictilisib; first compound 0.8 µM) was 0.838, the relative viability (Vorinostat + Pictilisib; first compound 2.53 µM) was 0.238 and the relative viability (Vorinostat + Pictilisib; first compound 8 µM) was 0.0615. The relative viability (Vorinostat + Crizotinib; first compound 0.253 µM) was 0.745, the relative viability (Vorinostat + Crizotinib; first compound 0.8 µM) was 0.5 and the relative viability (Vorinostat + Crizotinib; first compound 2.53 µM) was 0.153. It also gave a relative viability (Vorinostat + Crizotinib; first compound 8 µM) of 0.0713, a relative viability (Vorinostat + Linsitinib; first compound 0.253 µM) of 0.995 and a relative viability (Vorinostat + Linsitinib; first compound 0.8 µM) of 0.868. The relative viability (Vorinostat + Linsitinib; first compound 2.53 µM) was 0.293, the relative viability (Vorinostat + Linsitinib; first compound 8 µM) was 0.0756 and the relative viability (Vorinostat + Alpelisib; first compound 0.253 µM) was 1.25. It also gave a relative viability (Vorinostat + Alpelisib; first compound 0.8 µM) of 0.917, a relative viability (Vorinostat + Alpelisib; first compound 2.53 µM) of 0.302 and a relative viability (Vorinostat + Alpelisib; first compound 8 µM) of 0.0879. For the same cell line, the relative viability (Vorinostat + Olaparib; first compound 0.253 µM) was 0.527, the relative viability (Vorinostat + Olaparib; first compound 0.8 µM) was 0.377 and the relative viability (Vorinostat + Olaparib; first compound 2.53 µM) was 0.169. For the same cell line, the relative viability (Vorinostat + Olaparib; first compound 8 µM) was 0.078.

For NCI-H1648, the relative viability (Vorinostat; 0.253 µM) was 0.815, the relative viability (Vorinostat; 0.8 µM) was 0.725 and the relative viability (Vorinostat; 1 µM, anchor plate) was 0.596. It also gave a relative viability (Vorinostat; 2.53 µM) of 0.252, a relative viability (Vorinostat; 8 µM) of 0.209 and a relative viability (Vorinostat + Trametinib; first compound 0.253 µM) of 0.596. It also gave a relative viability (Vorinostat + Trametinib; first compound 0.8 µM) of 0.494, a relative viability (Vorinostat + Trametinib; first compound 2.53 µM) of 0.191 and a relative viability (Vorinostat + Trametinib; first compound 8 µM) of 0.191. For the same cell line, the relative viability (Vorinostat + Palbociclib; first compound 0.253 µM) was 0.278, the relative viability (Vorinostat + Palbociclib; first compound 0.8 µM) was 0.239 and the relative viability (Vorinostat + Palbociclib; first compound 2.53 µM) was 0.224. The relative viability (Vorinostat + Palbociclib; first compound 8 µM) was 0.213, the relative viability (Vorinostat + OSI-027; first compound 0.253 µM) was 0.252 and the relative viability (Vorinostat + OSI-027; first compound 0.8 µM) was 0.267. The relative viability (Vorinostat + OSI-027; first compound 2.53 µM) was 0.28, the relative viability (Vorinostat + OSI-027; first compound 8 µM) was 0.263 and the relative viability (Vorinostat + Tozasertib; first compound 0.253 µM) was 0.457. For the same cell line, the relative viability (Vorinostat + Tozasertib; first compound 0.8 µM) was 0.319, the relative viability (Vorinostat + Tozasertib; first compound 2.53 µM) was 0.161 and the relative viability (Vorinostat + Tozasertib; first compound 8 µM) was 0.158. For the same cell line, the relative viability (Vorinostat + AZD7762; first compound 0.253 µM) was 0.51, the relative viability (Vorinostat + AZD7762; first compound 0.8 µM) was 0.496 and the relative viability (Vorinostat + AZD7762; first compound 2.53 µM) was 0.331. The relative viability (Vorinostat + AZD7762; first compound 8 µM) was 0.212, the relative viability (Vorinostat + Pemetrexed; first compound 0.253 µM) was 0.598 and the relative viability (Vorinostat + Pemetrexed; first compound 0.8 µM) was 0.595. For the same cell line, the relative viability (Vorinostat + Pemetrexed; first compound 2.53 µM) was 0.428, the relative viability (Vorinostat + Pemetrexed; first compound 8 µM) was 0.241 and the relative viability (Vorinostat + Decitabine; first compound 0.253 µM) was 0.414. For the same cell line, the relative viability (Vorinostat + Decitabine; first compound 0.8 µM) was 0.473, the relative viability (Vorinostat + Decitabine; first compound 2.53 µM) was 0.215 and the relative viability (Vorinostat + Decitabine; first compound 8 µM) was 0.22. For the same cell line, the relative viability (Vorinostat + Olaparib; first compound 0.253 µM) was 1.13, the relative viability (Vorinostat + Olaparib; first compound 0.8 µM) was 0.674 and the relative viability (Vorinostat + Olaparib; first compound 2.53 µM) was 0.212. The relative viability (Vorinostat + Olaparib; first compound 8 µM) was 0.201.
